Assay results published in article PMC5789847, “Bismuth antimicrobial drugs serve as broad-spectrum metallo-β-lactamase inhibitors” (Nature Communications, 2018).

Experiments:
NDM-1 [1] = biological target: T1, NDM-1 (Klebsiella pneumoniae, UniProt C7C422); assay type: biochemical; conditions: Bi(III) 1.5 µM (as Bi(NIT)3); 0.900 at 0 µM
Procedure: NDM-1 (50 nM) was incubated with Bi(NIT)3 (0.5, 1.0, and 1.5 µM) for 1 h at 25 °C with gentle shaking. The assay was performed in a 96-well microplate reader at 298 K. The final assay buffer contains 50 mM HEPES at pH 7.0, 100 mM NaCl, with MER as the substrate ranging from 10 to 150 µM. Control experiment was also performed in the absence of inhibitors under the same conditions. The Km and Vmax for both the uninhibited and inhibited reactions were obtained by fitting the data into the double reciprocal Lineweaver–Burk plots.

NDM-1-C208A = NDM-1-C208A (Klebsiella pneumoniae, UniProt C7C422, C208A); experiment: Bi(III) binding capacity by ICP-MS
Procedure: To monitor the displacement of Zn(II) by Bi(III), ICP-MS was employed to accurately quantify ^209Bi and ^66Zn contents in various purified NDM-1 samples. Purified Zn-bound-NDM-1 (20 μM) dissolved in trace-metal-free ICP-MS buffer containing 50 mM HEPES, pH 7.0, was incubated with various concentrations of CBS at 25 °C for 5 h with mild shaking. The samples were subsequently dialyzed in ICP-MS buffer to remove unbound-metal ions and were then acidified and subsequently analyzed using an ICP-MS spectrometer (Agilent 7500a, Agilent Technologies, CA, USA) with ^115In as an internal standard for ^209Bi, ^66Zn, and ^34S contents, which are used to quantify protein concentration.

NDM-1 [2] = biological target: T1, NDM-1; experiment: Zinc supplementation assay; assay type: biochemical; conditions: supplementation of 2 molar equivalents of Zn(II); Bi-NDM-1 prepared with CBS
Procedure: To investigate whether bismuth inhibits the enzyme reversibly, enzyme activities of Bi-NDM-1 and apo-NDM-1 were compared upon the supplementation of Zn(II). Bi-bound NDM-1 (50 nM) was prepared by pre-incubation of apo-bound NDM-1 with CBS for 2 h at 25 °C, followed by removal of unbound Bi(III) and the bound Bi was verified by ICP-MS. The above protein solutions were mixed with ZnSO4 at concentration up to 2 molar equivalents to NDM-1 and 100 µM MER. The change in absorbance at 300 nm was monitored on a Varian Cary 50 UV-visible spectrophotometer at 25 °C for calculation of reaction rates. Reaction rate of apo-NDM-1 with addition of 2 molar equivalents of ZnSO4 was normalized to 1. The metal content of Bi-bound NDM-1 treated with Zn(II) was measured and analyzed by ICP-MS as described in the previous section.

IMP-BL21 (IMP-4^+) = experiment: microbe, parasite or virus in culture; assay type: cell-based, E. coli; conditions: IMP-BL21
Procedure: (§1) MIC values were determined by standard broth micro-dilution method (Clinical and Laboratory Standards Institute (CLSI) M100-S20, 2010)[64]. Briefly, bacterial cells were cultured in LB broth overnight at 37 °C at 250 rpm and the OD was measured at 600 nm (OD600). The bacterial density was adjusted to about 1 × 10^6 CFU mL^−1 and checked by CFU counting on agar plates afterwards. Tested antibiotics or Bi(III) compounds were added triplicately into individual wells of flat-bottomed 96-well plates and performed 2-fold serial dilution, followed by addition of prepared bacterial inocula. The plate was then incubated at 37 °C for overnight. […] The MIC was determined as the lowest concentration of a drug that could inhibit the growth of microorganism by both visual reading and OD reading at 600 nm using a microtiter plate reader.
(§2) Resulting growth (or lack of growth) was examined after overnight culturing and the lowest concentration that inhibits 99.9% of the original culture was taken as MBC.
(§3) Other procedures were kept strictly the same. […] Synergism was defined when FICI ≤ 0.5, indifference was defined when FICI > 0.5 and < 4, and antagonism was defined when FICI≥4[65]. […] All of the determinations were performed at least in triplicate on different days.

NDM-HK (NDM-1^+) = experiment: microbe, parasite or virus in culture; assay type: cell-based, E. coli; conditions: NDM-HK
Procedure: as §1, §2, §3

VIM-BL21 (VIM-2^+) = experiment: microbe, parasite or virus in culture; assay type: cell-based, E. coli; conditions: VIM-BL21
Procedure: as §1, §2, §3

VIM-2 = VIM-2 (Escherichia coli, UniProt Q5U7L7); assay type: biochemical; conditions: VIM-2 50 nM, 1 h preincubation, MER substrate
Procedure: (§4) Freshly prepared 50 nM of Zn2-NDM-1, Zn2-VIM-2, or Zn2-IMP-4 in 50 mM HEPES/Na pH 7.0, 100 mM NaCl were first incubated with various concentrations of CBS for 1 h at 25 °C, then mixed with equal volume of 0.2 mM MER. The assay was performed in a 1 cm quartz cuvette using the kinetic mode on a Varian Cary50 UV-visible spectrophotometer at 25 °C. The decrease in absorbance at 300 nm due to ring-opening of MER was monitored every second for a duration of 10 min until the reaction was completed. The initial rates were extracted and calculated from each reaction curves for fitting IC50 curves.

NDM-1 [3] = biological target: T1, NDM-1; assay type: biochemical; conditions: NDM-1 50 nM, 1 h preincubation, MER substrate
Procedure: as §4

IMP-4 = experiment: IC50 enzyme inhibition assay; assay type: biochemical; conditions: IMP-4 50 nM, 1 h preincubation, MER substrate
Procedure: as §4

[4] = system: NDM-K. pneumonia (NDM-1^+); experiment: Microdilution MIC/MBC and checkerboard assay; assay type: cell-based, Klebsiella pneumonia; conditions: NDM-K. pneumonia (NDM-KP)
Procedure: as §1, §2, §3

[5] = system: NDM-C. freundii (NDM-1^+); experiment: Microdilution MIC/MBC and checkerboard assay; assay type: cell-based, Citrobacter freundii; conditions: NDM-C. freundii (NDM-CF)
Procedure: as §1, §2, §3

NDM-HK = conditions: metal compound 10, 50, 200 µM with MER at ½MIC (8 μg mL^−1), 24 h
Procedure: Metal salts used for the screening involved bismuth nitrate (Bi(III)), gallium nitrate (Ga(III)), sodium stibogluconate (Sb(V)), chromium chloride (Cr(III)), cobalt chloride (Co(II)), nickel chloride (Ni(II)), ruthenium chloride (Ru(II)), and copper sulfate (Cu(II)). Briefly, different concentrations (10, 50, and 200 μM) of metal compounds were added to LB medium containing 8 μg mL^−1 of MER in 96-well plates. About 2 × 10^6 CFU mL^−1 logarithmic cultures of NDM-HK were added to each well of the plates and co-incubated for overnight. The growth inhibition of bacteria was monitored by OD reading at 600 nm and serial dilution in LB agar plate. Wells with no antibiotics or metal compounds served as growth controls, and wells with no bacteria added served as background controls. Each test was performed in triplicate. The inhibition was calculated as [1−(ODsample−ODbackground)/(ODcontrol−ODbackground)] ×100%. CFU was counting by 10-fold serial dilution in PBS and 10 μL was spotted in LB agar plate.

T1 sequence (C7C422 29-270, looked up, species assumed): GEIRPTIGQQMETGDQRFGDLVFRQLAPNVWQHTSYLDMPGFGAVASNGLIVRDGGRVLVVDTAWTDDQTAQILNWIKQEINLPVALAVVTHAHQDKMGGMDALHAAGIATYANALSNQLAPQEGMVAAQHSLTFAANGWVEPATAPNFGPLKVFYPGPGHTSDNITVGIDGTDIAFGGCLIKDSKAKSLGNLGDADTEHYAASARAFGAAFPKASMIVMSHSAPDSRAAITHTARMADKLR
Sequence of NDM-1-C208A (C7C422 29-270 C208A): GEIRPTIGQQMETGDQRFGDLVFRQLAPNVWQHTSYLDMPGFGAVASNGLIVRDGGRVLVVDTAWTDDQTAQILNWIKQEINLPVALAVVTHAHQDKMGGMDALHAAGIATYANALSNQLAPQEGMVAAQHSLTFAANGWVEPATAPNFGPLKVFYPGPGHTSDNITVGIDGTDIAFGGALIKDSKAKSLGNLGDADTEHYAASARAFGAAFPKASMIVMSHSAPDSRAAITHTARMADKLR

Structure (SMILES): [Bi+3] [Bi(III)]
- apparent Vmax (NDM-1 [1]): 0.365 µM/s
- Bi(III) bound to the mutant (NDM-1-C208A): ca. 0.25 molar equivalents
- activity restored for Bi-bound NDM-1 (NDM-1 [2]): about 20%

Structure (SMILES): CC(C)([S][Bi+][S]C(C)(C)C(N)C(=O)O)C(N)C(=O)O (stereo not drawn) [Bi(PCM)2]
- MBC of MER in combination with compound at 32 µg mL^-1 (IMP-BL21 (IMP-4^+)): 2 µg/mL
- MIC of MER in combination with compound at 32 µg mL^-1 (IMP-BL21 (IMP-4^+)): 1 µg/mL
- MBC of Bi(III) compound/inhibitor alone (NDM-HK (NDM-1^+)): > 256 µg/mL
- MBC of MER in combination with compound at 32 µg mL^-1 (NDM-HK (NDM-1^+)): 2 µg/mL
- MIC of Bi(III) compound/inhibitor alone (NDM-HK (NDM-1^+)): > 256 µg/mL
- MIC of MER in combination with compound at 32 µg mL^-1 (NDM-HK (NDM-1^+)): 2 µg/mL
- FICI (NDM-HK (NDM-1^+); MER + compound, 256 µg mL^-1 set as MIC of Bi(III), 128 for Bi(NAC)3): 0.313
- MBC of Bi(III) compound alone (VIM-BL21 (VIM-2^+)): > 256 µg/mL
- MBC of MER in combination with compound at 32 µg mL^-1 (VIM-BL21 (VIM-2^+)): 2 µg/mL
- MIC of Bi(III) compound alone (VIM-BL21 (VIM-2^+)): > 256 µg/mL
- MIC of MER in combination with compound at 32 µg mL^-1 (VIM-BL21 (VIM-2^+)): 1 µg/mL
- FICI (VIM-BL21 (VIM-2^+); MER + compound, 256 µg mL^-1 set as MIC of Bi(III)): 0.093
- IC50 (VIM-2): 3710 ± 1190 nM
- IC50 (NDM-1 [3]): 2800 ± 110 nM
- IC50 (IMP-4): 1000 ± 370 nM
- MBC of MER in combination with compound at 32 µg mL^-1 [4]: 8 µg/mL
- MIC of MER in combination with compound at 32 µg mL^-1 [4]: 2 µg/mL
- MBC of MER in combination with compound at 32 µg mL^-1 [5]: 2/2 µg mL^-1
- MIC of MER in combination with compound at 32 µg mL^-1 [5]: 2/2 µg mL^-1

Structure (SMILES): O=[N+]([O-])[O-].O=[N+]([O-])[O-].O=[N+]([O-])[O-].[Ga+3] [gallium nitrate]
- MIC of Bi(III) compound/inhibitor alone (NDM-HK (NDM-1^+)): greater than 256 µg mL^-1
- growth inhibition based on optical density (OD) reading (NDM-HK): > 90%
